Data taken from US20070129371A1, “Novel ethylenediamine derivatives” (Daiichi Pharmaceutical Co., Ltd., priority 2002, published 2007).
Counter-ions that a name gives are not always drawn.

Molecular target: T1, human FXa (Homo sapiens, UniProt P00742)
T1 construct: purchased Enzyme Research Laboratories, Inc
Experiment: Determination of human FXa-inhibiting effect (IC50 value)
Format: biochemical
Details: S-2222 chromogenic substrate, absorbance at 405 nm, Tris buffer pH 7.4, room temperature
Method: A 5% DMSO solution (10 μl) of each test compound, the concentrations of which had been suitably set stepwise, and Tris buffer (100 mM Tris, 200 mM potassium chloride, 0.2% BSA, pH 7.4) (40 μl) and 0.0625 U/ml human FXa (Enzyme Research Laboratories, Inc., dissolved in and diluted with Tris buffer) (10 μl) were put in each of the wells of a 96-well microplate. A 750 μM aqueous solution (40 μl) of S-2222 (Chromogenix Co.) was added. Absorbance at 405 nm was measured for 10 minutes at room temperature to determine an increase in absorbance (ΔOD/min). As a control, Tris buffer was used in place of the test compound.
The percent inhibition (%) calculated using the following equation at the final concentration of the test compound and the final concentration of the test compound were plotted on the ordinate and abscissa of logarithmic probability paper, respectively, to determine the 50% inhibition concentration (IC50 value) Percent inhibition (%)=[1−(ΔOD/min of test compound)÷(ΔOD/min of control)]×100

T1 sequence (P00742 235-488 limits assumed): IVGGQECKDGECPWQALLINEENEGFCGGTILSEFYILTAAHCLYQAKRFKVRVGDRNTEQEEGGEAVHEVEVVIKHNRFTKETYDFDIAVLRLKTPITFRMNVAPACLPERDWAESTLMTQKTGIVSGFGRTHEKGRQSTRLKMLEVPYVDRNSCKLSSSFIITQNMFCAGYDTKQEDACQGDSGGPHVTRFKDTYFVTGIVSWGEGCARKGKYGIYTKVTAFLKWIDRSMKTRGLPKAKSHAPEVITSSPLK
T1 sequence (P00742 41-179 partner limits assumed): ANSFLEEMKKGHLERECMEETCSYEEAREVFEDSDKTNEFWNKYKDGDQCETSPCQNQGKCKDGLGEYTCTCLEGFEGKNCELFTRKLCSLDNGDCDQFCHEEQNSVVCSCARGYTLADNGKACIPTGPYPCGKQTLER

| SMILES | IC50 |
| --- | --- |
| CN1CCc2nc(C(=O)N[C@@H](CNC(=O)C(=O)Nc3ccc(Br)cc3)C(=O)N(C)C)sc2C1 [Example 38, N^1-(4-Bromophenyl)-N^2-((2S)-3-(dimethylamino)-2-{[(5-methyl-4,5,6,7-tetrahydrothiazolo[5,4-c]pyridin-2-yl)carbonyl]amino}-3-oxopropyl)ethanediamide hydrochloride] | 0.81 nM |
| CN1CCc2nc(C(=O)N[C@@H](CNC(=O)C(=O)Nc3ccc(Cl)cc3)C(=O)N(C)C)sc2C1 [Example 39, N^1-(4-Chlorophenyl)-N^2-((2S)-3-(dimethylamino)-2-{[(5-methyl-4,5,6,7-tetrahydrothiazolo[5,4-c]pyridin-2-yl)carbonyl]amino}-3-oxopropyl)ethanediamide hydrochloride] | 0.86 nM |
| CN1CCc2nc(C(=O)N[C@@H](CNC(=O)C(=O)Nc3ccc(Cl)s3)C(=O)N(C)C)sc2C1 [Example 40, N^1-(5-Chlorothien-2-yl)-N^2-((2S)-3-(dimethylamino)-2-{[(5-methyl-4,5,6,7-tetrahydrothiazolo[5,4-c]pyridin-2-yl)carbonyl]amino}-3-oxopropyl)ethanediamide hydrochloride] | 1.3 nM |
| CN1CCc2nc(C(=O)N[C@@H](CNC(=O)C(=O)Nc3ccc(Cl)cc3)c3cnco3)sc2C1 [Example 62, N^1-(4-Chlorophenyl)-N^2-[(2S)-2-{[(5-methyl-4,5,6,7-tetrahydrothiazolo[5,4-c]pyridin-2-yl)carbonyl]amino}-2-(1,3-oxazol-5-yl)ethyl]ethanediamide hydrochloride] | 1.8 nM |
| C[C@@H](NC(=O)C(=O)Nc1ccc(Cl)cn1)[C@H](NC(=O)c1nc2c(s1)CN(C)CC2)C(=O)N(C)C [Example 66, N^1-(5-Chloropyridin-2-yl)-N^2-((1R,2S)-3-(dimethylamino)-1-methyl-2-{[(5-methyl-4,5,6,7-tetrahydrothiazlo [5,4-c]pyridin-2-yl)carbonyl]amino}-3-oxopropyl)ethanediamide hydrochloride] | 2 nM |

Next, values leading:

| IC50 | SMILES |
| --- | --- |
| 7.1 nM | CN1CCc2nc(C(=O)NC(CNC(=O)C(=O)Nc3ccc(Cl)cn3)C(=O)N3CCS(=O)(=O)CC3)sc2C1 (centres unmarked) [Example 2, N^1-(5-Chloropyridin-2-yl)-N^2-(3-(1,1-dioxothiomorpholin-4-yl)-2-{[(5-methyl-4,5,6,7-tetrahydrothiazolo[5,4-c]pyridin-2-yl)carbonyl]amino}-3-oxopropyl)ethanediamide hydrochloride] |
| 2.4 nM | CN1CCc2nc(C(=O)N[C@@H](CNC(=O)C(=O)Nc3ccc(Cl)cn3)C(=O)N(C)C)sc2C1 [Example 26, N^1-(5-Chloropyridin-2-yl)-N^2-((2S)-3-(dimethylamino)-2-{[(5-methyl-4,5,6,7-tetrahydrothiazolo[5,4-c]pyridin-2-yl)carbonyl]amino}-3-oxopropyl)ethanediamide hydrochloride] |
| 1.5 nM | CN1CCc2nc(C(=O)N[C@@H](CNC(=O)C(=O)Nc3ccc(Br)cn3)C(=O)N(C)C)sc2C1 [Example 37, N^1-(5-Bromopyridin-2-yl)-N^2-((2S)-3-(dimethylamino)-2-{[(5-methyl-4,5,6,7-tetrahydrothiazolo[5,4-c]pyridine-2-yl)carbonyl]amino}-3-oxopropyl)ethanediamide hydrochloride] |
